Like-named read-outs stand apart in the source and are kept apart here.
Experiments:
Experiment in all cases: Ca2+ mobilization, GFP-apoaequorin luminescence in CHO-K1 with Gα-16
Type in all cases: cell-based
[1] = biological target: T1, S. kowalevskii α2-adrenergic (Saccoglossus kowalevskii, UniProt A0ABM0GQ86); settings: read-out: Epinephrine
T1 construct: gene LOC100373264; full-length in pcDNA3.1(+), expressed in CHO-K1 with Gα-16 and GFP-apoaequorin
T1 sequence (A0ABM0GQ86 1-464): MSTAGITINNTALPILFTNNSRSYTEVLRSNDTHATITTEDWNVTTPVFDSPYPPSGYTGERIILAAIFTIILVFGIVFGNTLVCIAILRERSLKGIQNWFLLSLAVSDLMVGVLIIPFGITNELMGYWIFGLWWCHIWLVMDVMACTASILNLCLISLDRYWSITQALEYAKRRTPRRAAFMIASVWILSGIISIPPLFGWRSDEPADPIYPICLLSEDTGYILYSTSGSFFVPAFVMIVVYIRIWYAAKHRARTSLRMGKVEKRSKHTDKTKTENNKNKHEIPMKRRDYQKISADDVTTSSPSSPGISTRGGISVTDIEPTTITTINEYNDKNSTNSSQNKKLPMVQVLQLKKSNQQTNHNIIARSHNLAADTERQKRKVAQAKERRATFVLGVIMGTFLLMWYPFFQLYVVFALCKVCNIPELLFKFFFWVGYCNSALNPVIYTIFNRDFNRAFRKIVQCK
Excerpt: Ca2+ mobilization, GFP-apoaequorin luminescence in CHO-K1 with Gα-16 on S. kowalevskii α2-adrenergic

[2] = biological target: T2, P. dumerilii α2-adrenergic receptor (Platynereis dumerilii, UniProt A0A1J0F5X6)
T2 construct: full-length in pcDNA3.1(+), expressed in CHO-K1 with Gα-16 and GFP-apoaequorin
T2 sequence (A0A1J0F5X6 1-619): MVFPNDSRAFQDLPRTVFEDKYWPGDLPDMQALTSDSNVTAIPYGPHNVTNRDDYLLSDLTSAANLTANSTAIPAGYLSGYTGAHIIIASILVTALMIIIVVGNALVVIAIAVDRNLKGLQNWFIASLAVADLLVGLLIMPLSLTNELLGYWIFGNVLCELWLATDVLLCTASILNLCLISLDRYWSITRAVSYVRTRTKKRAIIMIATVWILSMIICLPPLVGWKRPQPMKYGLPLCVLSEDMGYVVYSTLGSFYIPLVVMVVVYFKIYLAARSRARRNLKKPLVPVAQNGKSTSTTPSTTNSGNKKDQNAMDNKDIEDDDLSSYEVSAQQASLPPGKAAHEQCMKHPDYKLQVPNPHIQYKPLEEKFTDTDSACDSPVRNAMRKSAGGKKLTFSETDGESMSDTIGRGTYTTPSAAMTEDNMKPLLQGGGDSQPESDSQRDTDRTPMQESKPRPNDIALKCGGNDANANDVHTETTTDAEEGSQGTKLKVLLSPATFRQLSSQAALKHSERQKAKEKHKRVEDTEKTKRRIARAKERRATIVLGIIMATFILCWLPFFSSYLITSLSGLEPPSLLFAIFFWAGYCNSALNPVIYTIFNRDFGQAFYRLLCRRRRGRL
Excerpt: Ca2+ mobilization, GFP-apoaequorin luminescence in CHO-K1 with Gα-16 on P. dumerilii α2-adrenergic receptor

[3] = biological target: T3, P. caudatus α2-adrenergic (Priapulus caudatus, UniProt A0ABM1F9E8)
T3 construct: gene LOC106820961; full-length in pcDNA3.1(+), expressed in CHO-K1 with Gα-16 and GFP-apoaequorin
T3 sequence (A0ABM1F9E8 1-470): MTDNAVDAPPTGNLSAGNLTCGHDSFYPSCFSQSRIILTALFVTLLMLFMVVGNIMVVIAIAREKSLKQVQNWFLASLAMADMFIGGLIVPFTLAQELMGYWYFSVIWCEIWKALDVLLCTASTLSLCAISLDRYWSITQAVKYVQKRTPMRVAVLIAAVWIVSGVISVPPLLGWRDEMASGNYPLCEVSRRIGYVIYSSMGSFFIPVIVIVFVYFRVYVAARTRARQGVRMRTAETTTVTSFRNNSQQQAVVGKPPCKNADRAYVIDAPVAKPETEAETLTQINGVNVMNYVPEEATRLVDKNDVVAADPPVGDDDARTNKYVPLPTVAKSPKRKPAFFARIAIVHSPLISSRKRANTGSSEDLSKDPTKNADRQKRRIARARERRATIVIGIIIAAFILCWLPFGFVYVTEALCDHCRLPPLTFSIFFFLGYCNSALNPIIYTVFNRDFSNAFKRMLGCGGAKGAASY
Excerpt: Ca2+ mobilization, GFP-apoaequorin luminescence in CHO-K1 with Gα-16 on P. caudatus α2-adrenergic

[4] = biological target: T4, Priapulus caudatus α1-adrenergic (Priapulus caudatus, UniProt A0ABM1DSS1); settings: read-out: Norepinephrine
T4 construct: gene LOC106805782; full-length in pcDNA3.1(+), expressed in CHO-K1 with Gα-16 and GFP-apoaequorin
T4 sequence (A0ABM1DSS1 1-550): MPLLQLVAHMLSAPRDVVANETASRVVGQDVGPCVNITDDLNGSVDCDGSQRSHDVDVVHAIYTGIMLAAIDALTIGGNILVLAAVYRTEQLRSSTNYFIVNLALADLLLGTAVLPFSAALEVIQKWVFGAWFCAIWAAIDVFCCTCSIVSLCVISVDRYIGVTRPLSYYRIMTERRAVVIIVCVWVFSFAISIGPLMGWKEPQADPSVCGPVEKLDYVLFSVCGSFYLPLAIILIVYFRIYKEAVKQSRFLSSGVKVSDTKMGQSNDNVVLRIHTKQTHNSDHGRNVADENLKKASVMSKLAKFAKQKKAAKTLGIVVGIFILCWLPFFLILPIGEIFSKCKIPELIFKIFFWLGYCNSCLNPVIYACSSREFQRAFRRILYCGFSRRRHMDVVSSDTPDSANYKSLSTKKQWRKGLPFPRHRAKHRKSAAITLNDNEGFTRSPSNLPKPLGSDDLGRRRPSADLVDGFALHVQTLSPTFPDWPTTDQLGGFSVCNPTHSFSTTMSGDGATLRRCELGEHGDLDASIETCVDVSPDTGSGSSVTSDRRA
Excerpt: Ca2+ mobilization, GFP-apoaequorin luminescence in CHO-K1 with Gα-16 on Priapulus caudatus α1-adrenergic

[5] = biological target: T5, S. kowalevskii α1-adrenergic (Saccoglossus kowalevskii, UniProt A0A0U2M149); settings: read-out: Norepinephrine
T5 construct: full-length in pcDNA3.1(+), expressed in CHO-K1 with Gα-16 and GFP-apoaequorin
T5 sequence (A0A0U2M149 1-774): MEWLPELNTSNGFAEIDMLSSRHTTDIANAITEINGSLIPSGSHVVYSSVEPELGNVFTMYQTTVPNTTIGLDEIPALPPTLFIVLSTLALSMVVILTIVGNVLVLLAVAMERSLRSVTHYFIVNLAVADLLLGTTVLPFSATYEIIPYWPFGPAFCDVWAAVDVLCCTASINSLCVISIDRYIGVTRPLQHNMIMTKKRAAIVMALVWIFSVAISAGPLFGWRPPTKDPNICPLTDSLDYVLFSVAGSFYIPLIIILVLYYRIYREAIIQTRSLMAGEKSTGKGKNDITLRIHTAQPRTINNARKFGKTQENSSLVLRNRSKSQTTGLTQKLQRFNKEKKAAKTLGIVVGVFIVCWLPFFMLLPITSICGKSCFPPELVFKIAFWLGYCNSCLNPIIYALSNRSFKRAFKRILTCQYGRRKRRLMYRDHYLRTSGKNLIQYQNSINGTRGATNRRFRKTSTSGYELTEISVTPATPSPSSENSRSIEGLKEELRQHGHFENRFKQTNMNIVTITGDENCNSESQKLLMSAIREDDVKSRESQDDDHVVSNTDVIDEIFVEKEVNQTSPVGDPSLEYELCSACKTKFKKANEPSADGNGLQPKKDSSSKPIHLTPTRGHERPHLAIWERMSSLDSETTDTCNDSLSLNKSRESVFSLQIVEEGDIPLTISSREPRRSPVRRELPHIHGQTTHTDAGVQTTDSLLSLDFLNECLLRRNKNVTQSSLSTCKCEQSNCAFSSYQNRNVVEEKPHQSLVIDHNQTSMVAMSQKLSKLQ
Excerpt: Ca2+ mobilization, GFP-apoaequorin luminescence in CHO-K1 with Gα-16 on S. kowalevskii α1-adrenergic

[6] = biological target: T6, Platynereis dumerilii α1-adrenergic receptor (Platynereis dumerilii, UniProt A0A1J0F5Z2); settings: read-out: Norepinephrine
T6 construct: full-length in pcDNA3.1(+), expressed in CHO-K1 with Gα-16 and GFP-apoaequorin
T6 sequence (A0A1J0F5Z2 1-651): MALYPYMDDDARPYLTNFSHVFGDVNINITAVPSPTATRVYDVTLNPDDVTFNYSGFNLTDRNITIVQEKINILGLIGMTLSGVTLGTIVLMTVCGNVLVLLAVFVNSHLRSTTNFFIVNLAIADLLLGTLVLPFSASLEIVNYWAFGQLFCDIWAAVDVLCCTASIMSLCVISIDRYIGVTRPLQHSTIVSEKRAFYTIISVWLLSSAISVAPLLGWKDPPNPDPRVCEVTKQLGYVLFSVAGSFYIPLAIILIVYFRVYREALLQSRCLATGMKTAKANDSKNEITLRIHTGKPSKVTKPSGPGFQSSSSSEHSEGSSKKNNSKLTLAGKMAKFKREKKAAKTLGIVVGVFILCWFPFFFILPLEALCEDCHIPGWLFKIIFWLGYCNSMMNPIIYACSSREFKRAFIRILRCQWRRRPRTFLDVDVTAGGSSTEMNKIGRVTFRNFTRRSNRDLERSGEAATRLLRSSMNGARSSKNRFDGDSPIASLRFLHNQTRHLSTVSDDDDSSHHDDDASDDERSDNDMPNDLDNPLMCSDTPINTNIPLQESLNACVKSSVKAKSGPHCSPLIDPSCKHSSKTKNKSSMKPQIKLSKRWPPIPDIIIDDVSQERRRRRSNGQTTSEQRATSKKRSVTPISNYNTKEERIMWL
Excerpt: Ca2+ mobilization, GFP-apoaequorin luminescence in CHO-K1 with Gα-16 on Platynereis dumerilii α1-adrenergic receptor

| SMILES | EC50 [1] [nM] | EC50 ([2]; read-out: Epinephrine) [nM] | EC50 ([3]; read-out: Epinephrine) [nM] | EC50 [4] [nM] | EC50 ([2]; read-out: Norepinephrine) [nM] | EC50 [5] [nM] | EC50 ([3]; read-out: Norepinephrine) [nM] | EC50 [6] [nM] |
| --- | --- | --- | --- | --- | --- | --- | --- | --- |
| CNC[C@H](O)c1ccc(O)c(O)c1 [epinephrine] | 2.3 | 11 | 450 | – | – | – | – | – |
| NC[C@H](O)c1ccc(O)c(O)c1 [norepinephrine] | – | – | – | 7.5 | 8.2 | 17 | 470 | 210 |

— PMC5282848, “Ancient coexistence of norepinephrine, tyramine, and octopamine signaling in bilaterians” (BMC Biology, 2017)
